From US20030069166A1, “Stimulative agent and stimulative perfume composition” (Shiseido Co., Ltd., priority 1999, published 2003)

Tests used:
[1] = test system: Contingent Negative Variation (CNV), electric potential of the brain; test: Contingent Negative Variation (CNV) measurement while inhaling the aroma sample; format: in vivo, human; conditions: for Stimulative or sedative effect by CNV (FIG. 1): 1% ethanol solution of each sample, 5 healthy adult women, over 100% of CNV = stimulative, less than 100% = sedative
Procedure: First of all, the test method of this invention is explained. The change of negative electric potential of brain called Contingent Negative Variation (CNV) was measured. CNV is the gradual fluctuation of electric potential of the brain. It is related to the fluctuation of the mental process and the conscious level such as an attention, expectation and anticipation.
An experiment to study perfume effects was as follows. After two seconds from a warning sound stimulation, a starting signal light of an exercise is turned on. Then, as soon as light is observed, the pushing button behavior is demanded as exercise reaction. In this series of steps, a sample of aroma is located at 10cm before nose tip. The aroma can be always recognized along with breathing. A recording electrode for the CNV measurement is fixed to the frontal region of the head. An electric potential between the frontal region and ear lobe is measured.
The fluctuation area of this section is expressed as comparative percentage (%) to 100% of blank (odorless stimulation). Also, aroma was presented in accordance with Latin square method.

[2] = test system: Contingent Negative Variation (CNV), electric potential of the brain; conditions: administered drug; reported in the literature; cited from earlier work

Structure (SMILES)	Stimulative or sedative effect by CNV (FIG. 1) [1]	Change of amplitude of CNV after administration [2]	also measured
CC=Cc1ccc(OC)cc1 [anethole]			Measured value of CNV ([1]; ethanol solution including 1 wt % of each sample, % relative to 100% of blank (odorless stimulation)): 108%
COc1ccc(C=O)cc1 [anisaldehyde, p-methoxy benzaldehyde]	much stronger stimulative effect in comparison with conventional lemon oil		Effective amount of anisaldehyde in the perfume ingredients ([1]; concluded from Table 2 (anisaldehyde in anethole)): ≥ 1 wt %
COc1cc(C)cc(OC)c1 [DMB, 1,3-dimethoxy-5-methylbenzene]	sedative effect		
Cn1c(=O)c2c(ncn2C)n(C)c1=O [caffeine]		increase of amplitude of CNV	
O=C1CN=C(c2ccccc2)c2cc([N+](=O)[O-])ccc2N1 [nitrazepam]		decrease of amplitude of CNV	
